Test system: MXT
Assay: Clonogenic test (soft agar colony growth), MXT
Assay type: cell-based, mouse
Conditions: 21 days, control = 100%, mean ± SEM
Text: 1—Interaction (Stimulation or Inhibition of Proliferation) With the Generation of Clonogenic Cells (Clonogenic Test)
The test used is that described by Hamburger et al. (Science, 1977; 197, 461-463) and Salmon et al. (New England J. Med., 298, 1321-1327). A cell is considered clonogenic if it has the capacity to proliferate and to give rise to a cell colony. “Human tumor stem cells” are the cells which are the source of the neoplastic cells which constitute a given tumor. These tumor stem cells are responsible for the relapse processes which may be observed after surgical resection of primary tumors and are also responsible for the formation of metastases. In a tumor or a tumor cell line, these clonogenic stem cells differ from the other cells of the tumor or from the neoplastic cell line under consideration in that they conserve their capacity to proliferate in the absence of any solid support.
In this test, the tumor cells are cultured on a semi-solid support consisting of agar. […] In a tumor cell population, cultured on such a support, it is these clonogenic cells (associated with an unlimited number of cell divisions and whose proliferation is referred to by M. I. Dawson as “anchorage-independent [clonal] growth”) which are capable of growing. The percentage of these clonogenic cells in a tumor or a cell line ranges between 0.1% and 0.001%.
The influence of the compounds of formulae (I) and (Ia) on the growth of the cell colonies obtained by culturing, for example, the mammalian tumor lines MCF7 and MXT and the colorectal line HT-29 on the semi-liquid culture medium known as “soft agar” was measured. On such a medium, only the clonogenic cells referred to by M. I. Dawson as “anchorage-independent (clonal) cells” survive and grow. The growth of these cells in such a “non-adherent” mode bears witness to their degree of tumorigenicity. The inhibition of the growth of the size of a tumor in which a larger number of clonogenic cells has developed then becomes the evidence of reinforced cytotoxic activity.
Conversely, this test can also reveal that a compound is capable of inhibiting the generation/proliferation of clonogenic cells, thus making the tumor less able to grow and thus reducing the population of tumor cells.
The tumor cell lines studied are maintained in culture in 25 cm^2 falcon dishes. They are then trypsinized and the cells are fully dissociated from each other. The percentage of live cells is determined after staining with trypan blue. A cell suspension at a concentration of from 5·10^4 to 15·10^4 cells/ml (depending on the cell type under consideration) is prepared in a 0.3% agar solution. Next, 200 μl of this suspension are inoculated in Petri dishes 35 mm in diameter, in which are placed 3 ml of a base layer consisting of a 0.5% agar solution. The 200 μl of cell suspension are in turn covered with 1.8 ml of an upper layer consisting of a 0.3% agar solution. The dishes are then placed in an incubator at 37° C., 5% CO2 and 70% humidity until the treatment. This treatment is carried out about 1 to 2 hours after the inoculation. The test compounds are prepared at a concentration 100 times greater than the desired concentration and 50 μl of these treating solutions are placed over the upper layer of agar in the corresponding dishes. In the present study, the final concentration of the test products is 10^−5, 10^−7 and 10^−9 M. The dishes are then kept in an incubator for 21 days. On the 21st day the dishes are treated by depositing on the upper layer 100 μl of a 1 mg/ml solution of MTT (3-(4,5-dimethylthiazol-2-yl)-2,5-diphenyltetrazolinium bromide prepared with RPMI 1640 medium) for 3 h at 37° C. After this period, the cell colonies are fixed by adding 2 ml of formalin per dish. After fixing for 24 hours, the formalin is evaporated off and the number of stained cell colonies, thus consisting of metabolically active cells, and whose surface area is greater than 100 μm^2, is determined using an inverted microscope. […]

| SMILES | average number of clones of clonogenic cells, percentage relative to control (10^−5 M) [%] | average number of clones of clonogenic cells, percentage relative to control (10^−7 M) [%] | average number of clones of clonogenic cells, percentage relative to control (10^−9 M) [%] |
| --- | --- | --- | --- |
| COc1ccc(-c2cc3c(OC)cc(OC)cc3[nH]c2=O)cc1 [CRL8246, 5,7-Dimethoxy-3-(4-methoxyphenyl)-1,2-dihydro-2-quinolinone] | 96.7 ± 7.2 | 97.7 ± 9.3 | 95.2 ± 6.8 |
| COc1ccc(-c2cc3c(OC)cc(OC)cc3n(CCC#N)c2=O)cc1 [CRL8247, 3-[5,7-Dimethoxy-3-(4-methoxyphenyl)-2-oxo-1,2-dihydro-1-quinolinyl]propanenitrile] | 65.7 ± 1.7 | 89.6 ± 4.9 | 98.4 ± 2.6 |
| COc1ccc(-c2cc3c(OC)cc(OC)cc3n(CCc3nnn[nH]3)c2=O)cc1 [CRL8256, 1-[2-(1H-1,2,3,4-Tetrazol-5-yl)ethyl]-5,7-dimethoxy-3-(4-methoxyphenyl)-1,2-dihydro-2-quinolinone] | 53 ± 1.9 | 103.8 ± 3.9 | 104.5 ± 4.7 |
| CCN(CC)C(=O)CCn1c(=O)c(-c2ccc(OC)cc2)cc2c(OC)cc(OC)cc21 [CRL8283, N,N-Diethyl-3-[5,7-dimethoxy-3-(4-methoxy-phenyl)-2-oxo-1,2-dihydro-1-quinolinyl]propanamide] | 23.7 ± 1.4 | 81.2 ± 3 | 91.4 ± 4 |
| CCN(CC)C(=O)Cn1c(=O)c(-c2ccc(OC)cc2)cc2c(OC)cc(OC)cc21 [CRL8315, N,N-Diethyl-2-[5,7-dimethoxy-3-(4-methoxy-phenyl)-2-oxo-1,2-dihydro-1-quinolinyl]acetamide] | 76 ± 2.3 | 103.9 ± 4.3 | 102.4 ± 3.9 |
| COc1ccc(-c2cc3c(OC)cc(OC)cc3n(CCN(C)C)c2=O)cc1 [CRL8316, 1-[2-(Dimethylamino)ethyl]-5,7-dimethoxy-3-(4-methoxyphenyl)-1,2-dihydro-2-quinolinone] | 10.8 ± 0.5 | 89.1 ± 3.7 | 95.3 ± 3.8 |

Source: patent publication US6593342B1, “Pharmaceutical compositions comprising 2-quinolones” (Laboratoire L. Lafon, priority 1998, dated 2003)
